For experiment [1], the target named is T1, Inhibitor of nuclear factor kappa-B kinase subunit beta (Homo sapiens, UniProt O14920).
T1 sequence (O14920 whole entry): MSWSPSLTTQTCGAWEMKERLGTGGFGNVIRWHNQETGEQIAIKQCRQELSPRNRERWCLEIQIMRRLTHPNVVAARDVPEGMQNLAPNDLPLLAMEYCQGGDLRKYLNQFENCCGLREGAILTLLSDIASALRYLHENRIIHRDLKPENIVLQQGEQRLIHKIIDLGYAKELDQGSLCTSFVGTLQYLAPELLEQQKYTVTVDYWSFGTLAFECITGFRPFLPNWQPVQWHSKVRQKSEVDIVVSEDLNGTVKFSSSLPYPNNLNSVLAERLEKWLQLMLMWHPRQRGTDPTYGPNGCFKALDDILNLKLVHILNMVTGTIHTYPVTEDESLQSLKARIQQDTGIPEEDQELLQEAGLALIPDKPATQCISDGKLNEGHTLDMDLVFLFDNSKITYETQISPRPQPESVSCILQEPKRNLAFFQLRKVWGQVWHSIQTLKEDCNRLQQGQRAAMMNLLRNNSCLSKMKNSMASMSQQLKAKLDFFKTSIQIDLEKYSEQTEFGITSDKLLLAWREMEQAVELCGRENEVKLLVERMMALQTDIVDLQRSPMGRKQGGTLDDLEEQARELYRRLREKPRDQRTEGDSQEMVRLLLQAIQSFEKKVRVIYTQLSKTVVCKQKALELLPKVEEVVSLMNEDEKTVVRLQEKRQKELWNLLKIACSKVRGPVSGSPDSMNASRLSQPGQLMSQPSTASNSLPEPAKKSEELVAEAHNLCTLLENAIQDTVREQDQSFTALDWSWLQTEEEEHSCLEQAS
Briefly: IKK Kinase Inhibition Assay. Particulars: pH 7.4; 22 °C.
Protocol: (§1) IKK kinase activity was assessed using a time-resolved fluorescence resonance energy transfer (TR-FRET) assay. The reaction was initiated by the addition of GST-IKBalpha substrate/ATP to the reaction buffer containing IKK kinase and test compounds. After incubation, detection reagent containing antiphosphoserine IKBalpha monoclonal antibody labelled with europium chelate, and an APC-labelled anti-GST antibody was added.

Experiment [2] deals with Serine/threonine-protein kinase PLK1 (Homo sapiens, UniProt P53350). Briefly: Scintillation Proximity Assay (SPA). Particulars: pH 7.2; 22 °C. Here is the method: The compound inhibitory activity was determined by incubation with purified PLK1 and biotinylated peptide substrate in the presence ATP/[gamma-33P]ATP. After incubation, the phosphorylated substrate was separated from nonincorporated radioactive ATP using SPA beads. Incorporated radioactivity was measured using Packard TopCount.
(In general: Scintillation proximity formats need no separation of bound from free tracer.)

The target of experiment [3] is T2, Inhibitor of nuclear factor kappa-B kinase subunit epsilon (Homo sapiens, UniProt Q14164).
T2 sequence (Q14164 whole entry): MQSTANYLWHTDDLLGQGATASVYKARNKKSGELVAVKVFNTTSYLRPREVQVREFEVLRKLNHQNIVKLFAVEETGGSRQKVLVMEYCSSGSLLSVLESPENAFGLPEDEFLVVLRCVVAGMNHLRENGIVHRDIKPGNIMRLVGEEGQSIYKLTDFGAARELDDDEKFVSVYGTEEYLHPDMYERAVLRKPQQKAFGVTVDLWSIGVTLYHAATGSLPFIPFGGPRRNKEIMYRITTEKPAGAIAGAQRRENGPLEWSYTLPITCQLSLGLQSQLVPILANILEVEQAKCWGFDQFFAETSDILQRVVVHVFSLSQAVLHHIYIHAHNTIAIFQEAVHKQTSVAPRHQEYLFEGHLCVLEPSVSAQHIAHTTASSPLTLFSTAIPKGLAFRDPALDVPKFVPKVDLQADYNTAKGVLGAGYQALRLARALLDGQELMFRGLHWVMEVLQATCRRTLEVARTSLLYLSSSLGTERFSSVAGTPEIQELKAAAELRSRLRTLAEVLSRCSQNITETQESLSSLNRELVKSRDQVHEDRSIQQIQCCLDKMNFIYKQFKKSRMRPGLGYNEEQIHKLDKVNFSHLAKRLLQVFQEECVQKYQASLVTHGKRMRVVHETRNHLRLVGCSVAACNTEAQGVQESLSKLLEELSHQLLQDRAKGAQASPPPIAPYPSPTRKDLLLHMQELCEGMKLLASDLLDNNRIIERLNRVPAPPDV
Briefly: IKK Kinase Inhibition Assay. The following applies: pH 7.4; 22 °C.
Protocol: as §1

Chain of Serine/threonine-protein kinase PLK1 (P53350 whole entry): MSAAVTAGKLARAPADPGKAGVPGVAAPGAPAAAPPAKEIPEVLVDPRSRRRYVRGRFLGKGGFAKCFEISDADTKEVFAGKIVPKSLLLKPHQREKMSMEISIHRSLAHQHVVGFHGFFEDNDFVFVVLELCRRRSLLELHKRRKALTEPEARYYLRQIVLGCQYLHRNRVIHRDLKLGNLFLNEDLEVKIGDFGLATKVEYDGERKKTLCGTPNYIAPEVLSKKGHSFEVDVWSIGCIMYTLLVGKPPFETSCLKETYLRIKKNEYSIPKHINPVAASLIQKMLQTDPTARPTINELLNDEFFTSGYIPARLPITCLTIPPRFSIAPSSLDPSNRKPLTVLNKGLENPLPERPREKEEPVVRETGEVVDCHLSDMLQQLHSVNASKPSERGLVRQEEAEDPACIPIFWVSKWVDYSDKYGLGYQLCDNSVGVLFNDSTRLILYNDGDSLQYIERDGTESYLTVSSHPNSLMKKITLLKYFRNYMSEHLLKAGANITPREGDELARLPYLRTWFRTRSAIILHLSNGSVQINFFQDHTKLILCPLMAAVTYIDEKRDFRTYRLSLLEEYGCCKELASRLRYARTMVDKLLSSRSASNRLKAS

A word on the IC50: it is the midpoint of a concentration-inhibition curve. With `COc1cc2ncn(-c3cc(OCC4CCCO4)c(C#N)s3)c2cc1OC` (stereo not given) [5-(5,6-dimethoxy-1H-1,3-benzodiazol-1-yl)-3-(oxolan-2-ylmethoxy)thiophene-2-carbonitrile], the IC50 in experiment [1] is greater than 15.8 µM; in experiment [2], greater than 10 µM.
For the compound `COc1cc2ncn(-c3cc(OCC4CCCO4)c(C(N)=O)s3)c2cc1OC` (stereo not given) [5-(5,6-dimethoxy-1H-1,3-benzodiazol-1-yl)-3-(oxolan-2-ylmethoxy)thiophene-2-carboxamide], the IC50 in experiment [3] and in experiment [1] was greater than 15.8 µM each time.
As for `COc1cc2ncn(-c3cc(OCc4ccccc4S(C)(=O)=O)c(C#N)s3)c2cc1OC` [5-(5,6-dimethoxy-1H-1,3-benzodiazol-1-yl)-3-[(2-methanesulfonylphenyl)methoxy]thiophene-2-carbonitrile], the IC50 in experiment [1] is greater than 15.8 µM.
Turning to `COc1cc2ncn(-c3cc(OCc4ccc(S(C)(=O)=O)cc4)c(C#N)s3)c2cc1OC` [5-(5,6-dimethoxy-1H-1,3-benzodiazol-1-yl)-3-[(4-methanesulfonylphenyl)methoxy]thiophene-2-carbonitrile], in experiment [1], the IC50 is greater than 15.8 µM.
Take `Cc1ccc(COc2cc(-n3cnc4ccccc43)sc2C(N)=O)cc1` [BMCL191018 Compound 9]: the IC50 in experiment [3] worked out at 3.98 µM; in experiment [2], 0.126 µM.
Regarding `COc1cc2ncn(-c3cc(OCc4ccc(S(C)(=O)=O)cc4)c(C(N)=O)s3)c2cc1OC` [BMCL191018 Compound 39], the IC50 in experiment [3] and in experiment [1] was greater than 15.8 µM each time.

These data come from BindingDB's records for doi:10.1016/j.bmcl.2006.09.018 (Gsk, 2006).
